Patent US10561658B2, “Thieno- and pyrrolopyrimidine analogues as anticancer agents and methods of use thereof” (UNIVERSITY OF MARYLAND, BALTIMORE COUNTY, priority 2015, dated 2020)
Where two headings read alike, the source gives them in different places.

Assays:
[1] = tested on: murine leukemia L1210 cells; assay: Cell proliferation assay, L1210; type: cell-based; settings: Mus musculus
Experimental: Cell proliferation assays for several of the compounds were performed on L1210, a mouse lymphocytic leukemia cell line; CCRF-CEM [39] an acute lymphoblastic leukemia cell line; and HeLa, a human cancer cell line derived from a human cervical adenocarcinoma. Murine Leukemia L1210, human lymphocytic CEM and human cervix carcinoma HeLa cells were obtained from the American Type Culture Collection (ATCC) (Rockville, Md.). All assays were performed in 96-well microtiter plates. To each well were added (5-7.5)×10^4 tumor cells and a given amount of the test compound. The cells were allowed to proliferate for 48 h (murine leukemia L1210 cells) or 72 h (human lymphocytic CEM and human cervix carcinoma HeLa cells) at 37° C. in a humidified CO2-controlled atmosphere. At the end of the incubation period, the cells were counted in a Coulter counter. The IC50 (50% inhibitory concentration) was defined as the concentration of the compound that inhibited cell proliferation by 50%. […] Presence of C7 iodine on the 2,4-dichloro pyrrolo[3,2-d] (compound 20) increases the anticancer activity by a factor of 5 when compared to compound 19. […] This alludes to a) importance of C7-I towards activity against cancer cell lines for the 2,4-O-benzylated analogues (15 and 16).

L1210 leukemia cell line = assay: Apoptosis analysis (annexin V staining), L1210; type: cell-based, mouse; settings: for cells undergoing apoptosis (annexin V): L1210, 1 μM, 48 h
Experimental: FIGS. 5 A and B contains apoptosis analysis (annexin V staining) in the L1210 leukemia cell line relating to compounds 1 (ii), 2 (iii) and 19 (iv) relative to a control (i). After incubation with 1 μM compound (1) for 48 h, 60% of the cells were observed undergoing apoptotic cell death, with the vast majority of these in early apoptosis (FIG. 5A (ii)).
(§1) Many antineoplastic compounds arrest cell proliferation by activating specific checkpoints that block progression through the cell cycle. To test whether compounds 1 or 2 inhibited cell proliferation by this mechanism, their effects on L1210 cell cycle distributions were monitored using propidium iodide staining and flow cytometry (FIG. 7). Cell cycle and apoptosis studies were conducted on L1210, a mouse lymphocytic leukemia cell line obtained from the American Type Culture Collection and grown in Dulbecco's Modified Eagle's Medium (DMEM) plus 10% fetal bovine serum (FBS). 2×10^6 cells were seeded in 100 mm dishes and treated with vehicle alone or compounds 1 or 2 at the IC50 values determined by cell viability assays or an equivalent volume of DMSO. At 24 and 48 h following treatment the cells were collected, fixed, and stained with propidium iodide (Sigma Aldrich) immediately before analysis by flow cytometry. Vehicle-treated cells were largely confined to G1 and S phases, with very small (<5%) subpopulations in the G2/M phase or showing sub-(<G1) or super-genomic (>G2) DNA content.

L1210 cells = assay: Cell cycle distribution (propidium iodide, flow cytometry), L1210; type: cell-based, mouse; settings: IC50 concentrations, 24 h or 48 h
Experimental: 0.32 μM compound 1, b. 5.4 μM compound 2, and analyzed by flow cytometry of fixed, propidium iodide-stained cells. A minimum of 3000 cells were analyzed per cell population. Each bar represents the mean±SD across 4 independent cell samples.
as §1

MDA-MB-231 cells = assay: MTT cytotoxicity, MDA-MB-231; type: cell-based; settings: Homo sapiens; MDA-MB-231, cell viability (MTT), 48 h; read-out: IC80 (equitoxic dose)
Experimental: Human metastatic breast cancer MDA-MB-231 cells were obtained from the American Type Culture Collection (ATCC) (Rockville, Md.) and maintained in Dulbecco's Modified Eagle's Medium (DMEM) containing 10% fetal bovine serum (FBS) without antibiotics at 37° C. in a humidified, CO2-controlled incubator. The cytotoxicity of compounds 1 and 2 was assessed by reduction of 3-(4, 5-dimethylthiazol-2-yl)-2,5-diphenyltetrazolium bromide (MTT). MDA-MB-231 cells were seeded in 96-well plates at 5×10^3 cells per well and treated with a range of drug concentrations. After 48 hours, cell viability was measured using the MTT Cell Proliferation Assay kit (ATCC) according to the manufacturer's instructions. Percent cell viability was plotted as a function of drug concentrations and analyzed using a sigmoidal dose response function with PRISM v3.03 software (GraphPad) to resolve drug concentrations yielding 50% cell death (IC50). The cell cycle distributions of MDA-MB-231 cells treated with compounds 1 or 2 were analyzed using propidium iodide staining and flow cytometry. 2×10^6 cells were seeded in 100 mm dishes and treated with compounds 1 or 2 at the IC80 values determined by cell viability assays or an equivalent volume of DMSO. 48 h following treatment the cells were collected, fixed, and stained with propidium iodide (Sigma Aldrich) immediately before analysis by flow cytometry.

[2] = tested on: Enterococcus faecalis (FRE) ATCC 51299; assay: Antimicrobial growth inhibition, E. faecalis; type: cell-based; settings: ATCC51299; Enterococcus faecalis ATCC 51299, 100 μM
Experimental: (§2) Evaluation of antimicrobial activity in vitro. Compounds were tested against the following panel of bacteria and fungi purchased from the American Type Culture Collection (ATCC). Briefly, bacteria were grown to mid-log phase, diluted with fresh medium to an optical density at 600 nm (OD600) of 0.030-0.060 and then diluted again 1:10. This suspension (195 μL) was added to wells in a 96 well microtiter plate (Sarstedt) and 5 μL of compound dissolved in DMSO was added to give a final concentration of 100-0.1 μM at 2.5% DMSO by volume. A DMSO negative control and standard antibiotic positive controls were included in each plate. All compounds were tested in triplicate for each concentration. Plates were sealed with parafilm, placed in a Ziploc bag to prevent evaporation, and incubated at 30° C. (fungi) or 37° C. (bacteria) for 16-20 hours (48 hours for C. neoformans). The OD600 values for each well were determined with a plate reader (Biotek, EL800) and the data were standardized to the DMSO control wells after subtracting the background from blank medium. Initial single concentrations were tested at 100 μM and active compounds were further tested with at least nine concentrations for a full dose response. Dose response curves were generated using GraphPad Prism 5 software and used to determine the MIC95 concentrations (minimal concentration that inhibits 95% of growth). […]

twenty kinases = assay: Select Screen kinase profiling, twenty kinases; type: biochemical; settings: 5 μM
From the text: The thieno[3,2-d]pyrimidine scaffold has been used extensively in the design of kinase inhibitors.

[3] = tested on: Pseudomonas aeruginosa ATCC 27853; assay: Antimicrobial growth inhibition, P. aeruginosa; type: cell-based; settings: ATCC27853; Pseudomonas aeruginosa ATCC 27853, 100 μM
Experimental: as §2

[4] = FIG. 7 concentration, said in b126 to be the IC50 from cell viability assays, read-out: IC50 concentration used for L1210 cell cycle analysis

In the case of Clc1nc(Cl)c2[nH]ccc2n1 [Compound 19, 2,4-Dichloropyrrolo[3,2-d]pyrimidine], the IC50 ([1]; 48 h proliferation, Coulter counter, read-out: IC50 L1210) is reported as 6.8 ± 2.8 µM and the “cells undergoing apoptosis (annexin V)” value (L1210 leukemia cell line) is reported as 85%.
With Clc1nc(Cl)c2scc(Br)c2n1 [Compound 2, 7-Bromo-2,4-dichlorothieno[3,2-d]pyrimidine] the “changes in L1210 cell cycle distribution” value (L1210 cells) was “no substantial changes”, the IC80 (MDA-MB-231 cells) was 8 µM and the inhibition at 100 µM [2] was less than 43%. For the same compound, the “inhibitory activity against twenty kinases” value (twenty kinases) was “did not exhibit any substantial inhibitory activity”, the IC50 [1, 4] was 5.4 µM and the “Annexin V positive cells” value (L1210 leukemia cell line; L1210, 5.4 μM) was 55%. For the same compound, the “cells consistent with late apoptosis” value (L1210 leukemia cell line; L1210, 5.4 μM) was 40% and the inhibition at 100 µM [3] was less than 43%.
Clc1nc(Cl)c2sccc2n1 [Compound 1, 2,4-Dichlorothieno[3,2-d]pyrimidine] was tested, and the “changes in L1210 cell cycle distribution” value (L1210 cells) was “no substantial changes”, the IC80 (MDA-MB-231 cells) was 15 µM and the inhibition at 100 µM [2] was less than 43%. For the same compound, the “inhibitory activity against twenty kinases” value (twenty kinases) was “did not exhibit any substantial inhibitory activity”, the IC50 [1, 4] was 0.32 µM and the “cells undergoing apoptosis (annexin V)” value (L1210 leukemia cell line) was 60%. It also gave an inhibition at 100 µM [3] of less than 43%.
